In brackets after ≈: the same amount, converted by molar mass. Residues, ends and D or L forms follow the SMILES beside them.
Columns and labels:
No.04 coronavirus [1] = assay: microbe, parasite or virus in culture; settings: Severe acute respiratory syndrome coronavirus
No.04 coronavirus [2] = system: No.04 coronavirus
MT-4 cells = assay: Cytotoxicity to MT-4 cells (MTT method); type: cell-based; settings: 12000 ng/ml to 24 ng/ml, 6 days
Experimental: Then test drugs were added. […] Cell growth was subsequently determined by the MTT method.

Nc1nc(O)c2ncn(COC(CO)CO)c2n1 [Ganciclovir, ganciclovir]
IC50 (No.04 coronavirus [1]; HEK293, read-out: half-inhibitory concentration (IC50)): 11.7 µg/mL (≈ 45.8 µM)
MIC (No.04 coronavirus [1]; read-out: minimum inhibitory concentration (MIC)): 23.4 µg/mL (≈ 91.8 µM)
treatment index (TI) (No.04 coronavirus [2]; CPE method, 293 cells): 256

CC[C@H](C)[C@H](NC(=O)[C@@H](NC(=O)[C@@H]1CCCN1C(=O)[C@H](CC(=O)O)NC(=O)[C@H](Cc1c[nH]cn1)NC(=O)[C@@H](NC(=O)[C@@H](N)CCSC)[C@@H](C)O)C(C)C)C(=O)N[C@@H](CO)C(=O)N[C@@H](CC(C)C)C(=O)N1CCC[C@H]1C(=O)N[C@H](C(=O)N[C@H](C(=O)O)[C@@H](C)O)[C@@H](C)O [HAb18G-AP-1] (H-MTHDPVISLPTT-OH)
cell growth of MT-4 cells (in words) (MT-4 cells): cell growth was not affected

N=C(N)NCCC[C@H](NC(=O)[C@H](Cc1c[nH]cn1)NC(=O)[C@H](Cc1c[nH]c2ccccc12)NC(=O)[C@H](Cc1c[nH]cn1)NC(=O)[C@H](CCCCN)NC(=O)[C@H](Cc1c[nH]cn1)NC(=O)[C@H](Cc1c[nH]cn1)NC(=O)[C@H](Cc1ccccc1)NC(=O)[C@@H]1CCCN1C(=O)[C@@H](N)Cc1ccc(O)cc1)C(=O)N1CCC[C@H]1C(=O)N[C@@H](CC(N)=O)C(=O)O [HAb18G-AP-6, Tyr Pro Phe His His Lys His Typ His Arg Pro Asn] (H-YPFHHKHWHRPN-OH)
cell growth of MT-4 cells (in words) (MT-4 cells): cell growth was not affected
half-inhibitory concentration (IC50) (No.04 coronavirus [2]; 24 h): 31.25 ± 0 µg/mL
minimum inhibitory concentration (MIC) (No.04 coronavirus [2]; 24 h): 62.25 ± 0 µg/mL (≈ 37.6 µM)

CC(C)C[C@H](NC(=O)[C@H](CCCCN)NC(=O)[C@@H](N)Cc1ccc(O)cc1)C(=O)N1CCC[C@H]1C(=O)NCC(=O)N[C@@H](Cc1c[nH]cn1)C(=O)N[C@@H](Cc1c[nH]cn1)C(=O)N[C@@H](Cc1c[nH]cn1)C(=O)N[C@@H](Cc1c[nH]cn1)C(=O)N[C@@H](Cc1ccc(O)cc1)C(=O)N[C@@H](CCCNC(=N)N)C(=O)N1CCC[C@H]1C(=O)O [HAb18G-AP-9] (H-YKLPGHHHHYRP-OH)
cell growth of MT-4 cells (in words) (MT-4 cells): cell growth was not affected

From patent US20070003565A1 (priority 2003, published 2007)
